Counter-ions that a name gives are not always drawn.
Molecular target: T1, DPP-IV enzyme (solubilized crude extractum from CaCo/Tc-7 cells) (Homo sapiens, UniProt P27487)
T1 construct: solubilized crude extractum from CaCo/Tc-7 cells; endogenous in cells; host or cells: CaCo/Tc-7 cells (solubilized crude extract)
Assay: DPP-IV enzyme inhibitory activity, fluorometric H-Gly-Pro-AMC assay
Type: biochemical
Conditions: H-Gly-Pro-AMC substrate 250 μM final; 60 min preincubation at 37° C.; 30 min reaction at 37° C.; Tris-HCl pH=7.5
Procedure: DPP-IV enzyme inhibitory activties of the compounds with the general formula (I) were determined by the following method: […]
Applied Conditions of the Assay:
The reaction of the DPP-IV enzyme and the H-Gly-Pro-AMC substrate is recorded by the liberation of AMC (7-amino-4-methylcoumarin) at 37° C. in 100 mM Tris-HCl, pH=7.5 (assay buffer). Standard curve of AMC is linear up to 31.25 μM concentration, therefore we used the relative fluorescence unit (RFU) of the AMC formed. It is detected using 360 nm excitation and 465 emmission filters (integration time 30 μs, Gain 25, No. of Flashes 50) by Tecan Spectrofluor Plus plate reader. Under these conditions enzyme reaction is linear for at least 30 min, and the enzyme dependence is linear up to 2.5 μg protein (up to 700 RFU). Using 1-0.8 μg of extracted protein Km for H-Gly-Pro-AMC is 50 μM. Higher than 500 μM substrate concentration caused fluorescent detection problems (inner filter effect) that can be solved by dilution of the samples.
The assay is designed to detect as efficiently as possible the active inhibitors using a 60 min preincubation time at 37° C. The assay is conducted by adding 0.8-1 μg protein extract in 10 μl enzyme sulution (using assay buffer: 100 mM Tris-HCl, pH=7.5) to the wells containing the test compounds in 10 μl volume and the 55 μl assay buffer (65 μl assay buffer in the case of controlls). After the preincubation period, the reaction is started by the addition of 25 μlmM H-Gly-Pro-AMC substrate solution (250 μM final concentration). The final test volume is 100 μl and the test solution contains 1% DMSO coming from the test compounds solution. Reaction time is 30 min at 37° C., and the reaction is stopped by adding 300 μl 1M Na-acetate buffer, pH=4.2. The fluorescence (RFU) of AMC formed is detected using 360 nm excitation and 465 emission filters in Tecan spectrofluor Plus plate reader (30 μs integration time, Gain 25 No. of Flashes 50). Inhibition % are calculated using the RFU of control and RFU of blank.

T1 sequence (P27487 whole entry): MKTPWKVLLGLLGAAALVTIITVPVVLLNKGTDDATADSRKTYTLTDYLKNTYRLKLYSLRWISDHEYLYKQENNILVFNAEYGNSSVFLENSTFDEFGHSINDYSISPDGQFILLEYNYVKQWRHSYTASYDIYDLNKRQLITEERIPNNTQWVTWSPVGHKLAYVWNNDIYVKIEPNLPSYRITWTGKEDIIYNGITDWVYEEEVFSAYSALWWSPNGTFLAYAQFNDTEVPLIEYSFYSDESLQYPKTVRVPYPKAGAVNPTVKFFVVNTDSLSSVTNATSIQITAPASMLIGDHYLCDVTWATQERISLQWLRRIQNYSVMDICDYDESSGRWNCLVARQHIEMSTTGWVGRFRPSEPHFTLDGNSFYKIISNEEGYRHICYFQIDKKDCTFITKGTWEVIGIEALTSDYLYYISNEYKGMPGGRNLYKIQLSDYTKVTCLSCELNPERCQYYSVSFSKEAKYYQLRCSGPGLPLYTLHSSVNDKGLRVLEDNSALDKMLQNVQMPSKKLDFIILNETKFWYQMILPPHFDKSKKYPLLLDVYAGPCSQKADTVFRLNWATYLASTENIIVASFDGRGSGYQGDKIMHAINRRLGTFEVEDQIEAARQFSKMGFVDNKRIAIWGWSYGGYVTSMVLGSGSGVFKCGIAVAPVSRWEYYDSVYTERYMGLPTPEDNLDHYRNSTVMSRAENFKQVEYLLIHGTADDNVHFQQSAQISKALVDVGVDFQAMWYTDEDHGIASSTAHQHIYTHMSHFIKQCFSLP

Row | IC50 [nM] | Structure (SMILES)
1 | 21 | N#C[C@H]1COCN1C(=O)CNC12CC3CC(C1)CC(Nc1ncccn1)(C3)C2 [Example 9, (4S)-3-{N-[3-(pyrimidin-2-ylamino)-1-adamantyl]glycyl}-1,3-oxazolidine-4-carbonitrile]
2 | 30 | N#C[C@@H]1CCCN1C(=O)CNC1C2CCC1CN(c1ncccn1)C2 (stereo partly drawn) [Example 40, (2S)-1-[N-(3-pyrimidin-2-yl-3-azabicyclo[3.2.1]oct-8-yl)glycyl]pyrrolidine-2-carbonitrile]
3 | 16 | N#Cc1ccc(CNC23CC4CC(CC(NCC(=O)N5CC(F)(F)C[C@H]5C#N)(C4)C2)C3)cc1 [Example 27, (2S)-1-(N-{3-[(4-cyanobenzyl)amino]-1-adamantyl}glycyl)-4,4-difluoropyrrolidine-2-carbonitrile]

Tested on: not given
Assay: not given
Conditions: not given

Row | melting point [°C] | Structure (SMILES)
4 | 169 to 172 | CC1(NCC(=O)N2CC(F)(F)C[C@H]2C#N)CC2CCC(C1)N2c1ncccn1.Cl.Cl (stereo partly drawn)
5 | 226 to 231 | N#Cc1ccc(CNC23CC4CC(CC(NCC(=O)N5CC(F)(F)C[C@H]5C#N)(C4)C2)C3)cc1 (as salt: hydrochloride) [Example 27, (2S)-1-(N-{3-[(4-cyanobenzyl)amino]-1-adamantyl}glycyl)-4,4-difluoropyrrolidine-2-carbonitrile]
6 | 205 to 207 | N#C[C@H]1COCN1C(=O)CNC12CC3CC(C1)CC(Nc1ncccn1)(C3)C2 (as salt: hydrochloride) [Example 9, (4S)-3-{N-[3-(pyrimidin-2-ylamino)-1-adamantyl]glycyl}-1,3-oxazolidine-4-carbonitrile]
7 | > 300 | Cl.Cl.N#C[C@@H]1CC(F)(F)CN1C(=O)CNC1C2CCC1CN(c1ncccn1)C2 (stereo partly drawn)
8 | 149 to 152 | N#C[C@@H]1CCCN1C(=O)CNC1C2CCC1CN(c1ncccn1)C2 (stereo partly drawn) (as salt: hydrochloride) [Example 40, (2S)-1-[N-(3-pyrimidin-2-yl-3-azabicyclo[3.2.1]oct-8-yl)glycyl]pyrrolidine-2-carbonitrile]
9 | 50 to 52 | N#C[C@@H]1CC(F)(F)CN1C(=O)CNC1C2CCC1CN(c1ncccn1)C2 (stereo partly drawn)
